Measurements from patent EP0428000A1, “Fluorogenic substrates for the detection of proteolytic enzyme activity” (priority 1989, dated 1991).
≈ marks a conversion by molar mass, not a printed value. Read-outs that look alike come from different tables or passages of the source. Numbered stars: 1 amine (or outer) side, 2 acyl side, 3 side chain; on linkers, the order of the positions; unused ones are H or OH. Square brackets hold non-standard residues; d marks the D form. Peptide text beside a SMILES is read from it. * marks the point of attachment. X3 = Nc1c(S(=O)(=O)O)cc2c3c(cc(S(=O)(=O)O)cc13)C(=O)N(CCCCCN*)C2=O; Dabcyl = CN(C)c1ccc(N=Nc2ccc(C(=O)*)cc2)cc1; X2 = CN(C)c1ccc(N=Nc2ccc(S(=O)(=O)*)cc2)cc1; X1 = CN(C)c1ccc(/N=N/c2ccc(C(=O)*)cc2)cc1; EDANS = O=S(=O)(O)c1cccc2c(NCCN*)cccc12; Sta = CC(C)C[C@H](N)[C@@H](O)CC(=O)O; NMeGABA = CN(CCCC(=O)[*:2])[*:1]; Isovaleryl = CC(C)CC(=O)*; GABA = NCCCC(=O)O

Tests used:
[1] = pH 4.7, aqueous buffer
[2] = assay buffer used
AMV protease [3] = format: biochemical, avian myeloblastosis virus (AMV)
Protocol: (§1) Rate measurements of the change of the fluorescence intensity over time were also performed for reaction mixtures containing a protease enzyme and a fluorogenic substrate of the present invention.

HIV protease [4] = molecular target: T1, HIV protease (Human immunodeficiency virus type 1 group M subtype B, UniProt P04585); test: HIV protease activity towards fluorogenic substrates; format: biochemical, human immunodeficiency virus-1 (HIV-1); set-up: The 11 kd protease enzyme, which is encoded by the human immunodeficiency virus-1 (HIV-1)
Protocol: as §1

HIV protease [5] = molecular target: T1, HIV protease; test: Fluorescence enhancement of substrate on hydrolysis by HIV protease; format: biochemical, human immunodeficiency virus-1 (HIV-1); set-up: The 11 kd protease enzyme, which is encoded by the human immunodeficiency virus-1 (HIV-1)
Protocol: Analytical HPLC and the isolation of substrate fragments were performed in accordance with methods well known in the art on a Hewlett Packard 1090M system equipped with diode array absorbance and fluorescence detectors, using either a Brownlee 250 x 4.6 mm C8 silica column at pH values below 5, or a Hamilton 50 x 4.1 mm PRP3 polymer column over a pH range of 2-8. A water to acetonitrile gradient was used; either 0.1% trifluoroacetic acid (pH of about 2), 10 mM sodium acetate (pH 4.9), or 10 mM Tris-HCl (pH 8) was included to vary the pH.
The detection system permitted the simultaneous acquisition of the chromatograms for fluorescence and several absorbance wavelengths, as well as the absorption spectra for all peaks. The fluorescence (excitation at 340 nm, emission at 490 nm) and 475 nm absorbance signals, which arise respectively from the EDANS and DABCYL groups, were used to monitor and quantitate the fragments produced by proteolysis of the substrate.
The molar fluorescence enhancement of Substrate I was also estimated by HPLC analysis of HIV protease/Substrate reaction mixtures at times before the hydrolysis reaction was complete. […]

physchem = settings: NaOAc buffer, pH 4.7, aqueous buffer
AMV protease [6] = molecular target: AMV protease (Avian myeloblastosis virus, UniProt P26315); test: Fluorogenic assay for inhibition of AMV protease (Substrate II); format: biochemical
Chain of AMV protease (Avian myeloblastosis virus, UniProt P26315) (P26315 whole entry): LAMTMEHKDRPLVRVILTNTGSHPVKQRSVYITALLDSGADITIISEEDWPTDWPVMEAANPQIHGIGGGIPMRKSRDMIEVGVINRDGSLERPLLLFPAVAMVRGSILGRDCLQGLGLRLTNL
Protocol: as §1

HIV protease [7] = molecular target: T1, HIV protease; test: Fluorogenic assay for inhibition of HIV protease (Substrate I); settings: Cornish-Bowden plot, parallel lines; pH 4.7, 30°C
Protocol: Typically, the assay reaction is performed using buffered solutions, and the reaction is allowed to proceed to virtual completion. The hydrolysis of the fluorogenic substrate by the protease enzyme is monitored by steady state fluorescence using a spectrofluorometer. Fluorescence intensity measurements can be acquired continuously and recorded directly by an interfaced microcomputer. The rate of fluorescent substrate hydrolysis can then be computed from a linear regression analysis. In this assay, the rate of hydrolysis of the fluorogenic substrate is directly proportional to the concentration of the protease. By omitting the protease inhibitor compound from the reaction mixture, the rate of change in fluorescent intensity due to the enzyme's activity can be determined. […]
The assay reaction was carried out in a fluorescence microcell (3 mm), for which a total sample volume of 120 microliters is adequate in most fluorometers. […] Prewarmed substrate solution (20 µL at 30°C) was then added to the microcell, and the fluorescence intensity of the reaction mixture was recorded as a function of time. […] The rate of change of the fluorescence intensity over the subsequent five to eight minutes was determined by linear regression. […] Therefore, the per cent inhibition was calculated as 100 x (1 - (rate in presence of inhibitor)/(rate in absence of inhibitor)).

## CC[C@H](C)[C@H](NC(=O)[C@@H]1CCCN1C(=O)[C@H](Cc1ccc(O)cc1)NC(=O)[C@H](CC(N)=O)NC(=O)[C@H](CCC(N)=O)NC(=O)[C@H](CO)NC(=O)CCCNC(=O)c1ccc(N=Nc2ccc(N(C)C)cc2)cc1)C(=O)N[C@H](C(=O)N[C@@H](CCC(N)=O)C(=O)NCCCCCN1C(=O)c2cc(S(=O)(=O)O)cc3c(N)c(S(=O)(=O)O)cc(c23)C1=O)C(C)C ({Dabcyl-GABA}-SQNYPIVQ-X3)
[1]
  solubility: ≥ 350 µM

## CC[C@H](C)[C@H](NC(=O)[C@H](CCC(N)=O)NC(=O)[C@@H]1CCCN1C(=O)[C@H](Cc1ccccc1)NC(=O)[C@H](CC(N)=O)NC(=O)[C@H](Cc1ccccc1)NC(=O)[C@H](CO)NC(=O)[C@@H](NC(=O)CCCN(C)S(=O)(=O)c1ccc(N=Nc2ccc(N(C)C)cc2)cc1)C(C)C)C(=O)N[C@H](C(=O)N[C@@H](CC(C)C)C(=O)NCCNc1cccc2c(S(=O)(=O)O)cccc12)[C@@H](C)O [Substrate III] (X2-[NMeGABA]VSFNFPQITL-{EDANS})
[2]
  solubility (in words): poor solubility

## CC(C)[C@H](NC(=O)[C@H](CO)NC(=O)CCCNC(=O)c1ccc(/N=N/c2ccc(N(C)C)cc2)cc1)C(=O)N[C@H](C(=O)N[C@@H](Cc1ccc(O)cc1)C(=O)N1CCC[C@H]1C(=O)N[C@H](C(=O)N[C@H](C(=O)N[C@@H](CCC(N)=O)C(=O)NCCNc1cccc2c(S(=O)(=O)O)cccc12)C(C)C)C(C)C)C(C)C [Substrate II] ({X1-GABA}-SVVYPVVQ-{EDANS})
AMV protease [3]
  AMV protease activity against Substrate II relative to Substrate I: at least 50 fold
  cleavage by AMV protease (in words): efficient substrate

## CC[C@H](C)[C@H](NC(=O)[C@H](CCSC)NC(=O)[C@H](Cc1ccc(O)cc1)NC(=O)[C@H](CC(N)=O)NC(=O)[C@H](CCC(N)=O)NC(=O)[C@H](CO)NC(=O)CCCN(C)S(=O)(=O)c1ccc(N=Nc2ccc(N(C)C)cc2)cc1)C(=O)N[C@H](C(=O)N[C@@H](CCC(N)=O)C(=O)NCCNc1cccc2c(S(=O)(=O)O)cccc12)C(C)C [Substrate IV] (X2-[NMeGABA]SQNYMIVQ-{EDANS})
[2]
  solubility (in words): poor solubility

## CC[C@H](C)[C@H](NC(=O)[C@@H]1CCCN1C(=O)[C@H](Cc1ccc(O)cc1)NC(=O)[C@H](CC(N)=O)NC(=O)[C@H](CCC(N)=O)NC(=O)[C@H](CO)NC(=O)CCCNC(=O)c1ccc(/N=N/c2ccc(N(C)C)cc2)cc1)C(=O)N[C@H](C(=O)N[C@@H](CCC(N)=O)C(=O)NCCNc1cccc2c(S(=O)(=O)O)cccc12)C(C)C [Substrate I] ({X1-GABA}-SQNYPIVQ-{EDANS})
HIV protease [4]
  cleavage by HIV protease (in words): cleaved quite efficiently
HIV protease [4]; HIV protease
  maximum velocity for the enzymatic reaction (Vmax): 47 nM/min
HIV protease [4]; HIV protease; read-out: Michaelis-Menten kinetics constant (Km)
  Km: 103 µM
HIV protease [4]; each substrate 3.4 µM
  rate of cleavage by HIV protease, Substrate I relative to Substrate II: ten times faster
HIV protease [5]; HPLC analysis, pH 4.9, acetonitrile-water
  enhancement of the fluorescence quantum yield of the Pro-Ile-Val-Gln-EDANS fragment over the parent substrate: 33 fold
HIV protease [5]; under assay conditions
  fluorescence enhancement on cleavage: 40 fold
physchem
  solubility: ~150 µM (≈ 230 µg/mL)
AMV protease [3]
  cleavage by AMV protease (in words): not by AMV protease

## CC[C@H](C)[C@H](NC(=O)[C@@H](NC(=O)[C@H](C)NC(=O)[C@@H](NC(=O)CCCNC(=O)c1ccc(/N=N/c2ccc(N(C)C)cc2)cc1)[C@@H](C)O)[C@@H](C)O)C(=O)N[C@@H](CCSC)C(=O)N[C@@H](CCSC)C(=O)N[C@@H](CCC(N)=O)C(=O)N[C@@H](CCCNC(=N)N)C(=O)NCC(=O)N[C@@H](CCC(=O)O)C(=O)NCCNc1cccc2c(S(=O)(=O)O)cccc12 [Substrate VII] ({X1-GABA}-TATIMMQRGE-{EDANS})
HIV protease [4]
  cleavage by HIV protease (in words): more efficient substrate
HIV protease [4]; HIV protease
  maximum velocity for the enzymatic reaction (Vmax): 1.8 nM/min
HIV protease [4]; read-out: Michaelis-Menten kinetics constant (Km); HIV protease
  Km: 5.9 µM

## CC[C@H](C)[C@H](NC(=O)[C@@H]1CCCN1C(=O)[C@H](Cc1ccccc1)NC(=O)[C@H](CC(N)=O)NC(=O)[C@H](CC(C)C)NC(=O)[C@@H](NC(=O)[C@H](C)NC(=O)CCCNC(=O)c1ccc(/N=N/c2ccc(N(C)C)cc2)cc1)[C@@H](C)O)C(=O)N[C@@H](CO)C(=O)N[C@@H](CCC(N)=O)C(=O)N[C@@H](CCC(=O)O)C(=O)NCCNc1cccc2c(S(=O)(=O)O)cccc12 [Substrate VI] ({X1-GABA}-ATLNFPISQE-{EDANS})
HIV protease [4]
  cleavage by HIV protease (in words): not as efficiently as was Substrate I

## CC[C@H](C)[C@H](NC(=O)CCCNC(=O)c1ccc(/N=N/c2ccc(N(C)C)cc2)cc1)C(=O)N[C@@H](CCCNC(=N)N)C(=O)N[C@@H](CCC(N)=O)C(=O)N[C@@H](C)C(=O)N[C@@H](CC(N)=O)C(=O)N[C@@H](Cc1ccccc1)C(=O)N[C@@H](CC(C)C)C(=O)NCC(=O)N[C@@H](CC(C)C)C(=O)NCCNc1cccc2c(S(=O)(=O)O)cccc12 [Substrate V] ({X1-GABA}-IRQANFLGL-{EDANS})
HIV protease [4]
  cleavage by HIV protease (in words): not as efficiently as was Substrate I

## CC(C)CC(=O)N[C@H](C(=O)N[C@H](C(=O)N[C@@H](CC(C)C)[C@@H](O)CC(=O)N[C@@H](C)C(=O)N[C@@H](CC(C)C)[C@@H](O)CC(=O)O)C(C)C)C(C)C [pepstatin] (Isovaleryl-VV[Sta]A[Sta]-OH)
AMV protease [6]
  IC50: ~40 µM
HIV protease [7]
  mode of inhibition of the protease: purely competitive
